Data reported in patent publication US20260144788A1, “COMPOUND FOR SHP2 PROTEIN DEGRADATION AND MEDICAL USES THEREOF” (UBIX THERAPEUTICS, INC., priority 2022, published 2026).

Target: T1, SHP2 protein (Homo sapiens, UniProt Q06124)
T1 sequence (Q06124 1-593): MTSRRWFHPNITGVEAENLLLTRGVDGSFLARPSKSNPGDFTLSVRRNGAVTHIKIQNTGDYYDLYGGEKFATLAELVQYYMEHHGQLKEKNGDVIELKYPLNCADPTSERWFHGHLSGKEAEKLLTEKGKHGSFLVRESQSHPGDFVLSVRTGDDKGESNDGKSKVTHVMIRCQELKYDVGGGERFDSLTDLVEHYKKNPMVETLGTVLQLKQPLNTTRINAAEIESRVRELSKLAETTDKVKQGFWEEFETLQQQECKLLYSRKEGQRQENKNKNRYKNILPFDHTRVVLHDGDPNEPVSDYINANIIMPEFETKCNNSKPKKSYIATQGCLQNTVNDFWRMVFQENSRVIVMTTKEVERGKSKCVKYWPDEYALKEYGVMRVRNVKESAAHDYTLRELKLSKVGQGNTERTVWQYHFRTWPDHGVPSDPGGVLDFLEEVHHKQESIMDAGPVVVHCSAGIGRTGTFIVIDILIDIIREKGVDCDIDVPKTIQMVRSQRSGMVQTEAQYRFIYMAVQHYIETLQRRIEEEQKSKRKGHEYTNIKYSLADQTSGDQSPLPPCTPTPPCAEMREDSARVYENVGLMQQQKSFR
Assay: Measurement of SHP2 protein degradation in NCI-H358 cells (western blotting)
Format: cell-based
Design: endogenous in cells; host or cells: NCI-H358
Conditions: harvested after 24 hours
Protocol: H358 cells were treated with the synthesized Example compounds, and the amount of SHP2 protein present in the cells was measured using western blotting detection. The protocol for the experiment using H358 cells is as follows.
[Culture]H358 cells were resuspended in RPMI1640 with 25 mM HEPES (Hyclone, SH30255.01), 10% FBS (Hyclone, SV30207.02), 1% Penicillin-streptomycin (Welgene, LS 202-02) media, seeded at 3×10^5/mL in 12-well plates (1 mL each), and cultured for 24 hours.
[Compound treatment] Before compound treatment, the media was changed to 1 mL media, and then the 12-well plate was treated as follows. The 10 mM stock dissolved in DMSO was serially diluted 1/100 or 1/10 with the media, and the compound was treated to the cells at a final concentration of 0.001, 0.01, and 0.1 μM, and harvested after 24 hours. For the negative control group, DMSO diluted 1/1000 in the media was added (1 μL DMSO+999 μL media).
[Harvest]24 hours after compound treatment, each well was scraped with a cell lifter (SPL, 90040), pipetted with a 1 mL pipette, collected in a 1.5 mL microtube, and centrifuged (500 g, 5 min, 4° C.). The supernatant was removed, washed with PBS, and centrifuged again (500 g, 5 min, 4° C.). Afterwards, the supernatant was removed to prepare a pellet.
[Cell lysis and sample preparation] Lysis buffer was prepared as follows. RIPA buffer (Biosesang, RC2038-050-00)+0.5 mM PMSF (SIGMA, P7626)+1× Protease/Phosphatase Inhibitor (Cell signaling, 5872S) were added at 30 μL per tube, vortexed, and incubated on ice for 30 minutes. Afterwards, sonication was performed (10 sec pulse, 30 sec rest, 5 cycles, 70% amplification) and centrifugation was performed (15,000 g, 15 min, 4° C.), and only the supernatant was transferred to a microtube. A 96-well plate was diluted to 1/4 with 7.5 μL of RIPA buffer and 2.5 μL of sample, and 200 μL each was added after mixing A and B of the BCA Protein Assay Kit (iNtRON, 21071) in a ratio of 50:1. The plate was incubated at 37° C. for 30 minutes and left at room temperature for 10 minutes. After shaking for 10 seconds with a SYNERGY H1 microplate reader from BioTek, the absorbance was measured at 562 nm. The protein was quantified using the measured value to make a sample, which was then incubated at 70° C. for 10 minutes. The sample buffer used here was a mixture of NuPAGE or Bolt 4× sample buffer (Invitrogen) and each 10× sample reducing agent depending on the gel to be used, and RIPA buffer was used for protein dilution.
[Western blotting detection] Equal amounts of samples were loaded onto NuPAGE or Bolt Bis-tris 4-12% gradient gel and run (200 V, 35 min). This was transferred to […] NC membrane using Trans-blot Turbo (BIO-RAD) (1.3 A constant, 25 V limit, 15 min), and blocked with 5% skim milk/0.2% TBST for 45 min at room temperature. Anti-SHPTP2 Mouse (1:1,000 in 5% skim milk/0.2% TBST, size: 70 kDa, Santa cruz sc-7384) and Anti-GAPDH Rabbit (1:2,000 in 5% skim milk or 5% BSA/0.2% TBST, size: 37 kDa, CST #2118) were added and incubated overnight at 4° C. After washing three times with 0.2% TBST washing buffer for 5 minutes each, secondary antibodies Anti-Mouse IgG (1:5,000 in 5% skim milk/0.2% TBST, CST) and IRDye® 680RD Goat anti-Rabbit IgG Secondary Antibody (1:10,000 in 5% skim milk/0.2% TBST, LI-COR 926-68071) were added, and incubated on a rocker at room temperature for 45 minutes. The resultants were washed five times with 0.2% TBST washing buffer for 5 minutes each, and detected using LI-COR's Odyssey. GAPDH was detected with a 700 nm channel, and SHPTP2 was detected using SuperSignal West Pico PLUS Chemiluminescent Substrate.

For `Cc1ncsc1-c1ccc(CNC(=O)[C@@H]2C[C@@H](O)CN2C(=O)[C@@H](NC(=O)C2(F)CC2)C(C)(C)C)c(OC2CCN(CC3(O)CCN(c4nccc(Sc5cnc(N6CCC(C)(CN)CC6)cn5)c4Cl)CC3)CC2)c1` [Example 10, (2S,4R)—N-(2-((1-((1-(4-((5-(4-(aminomethyl)-4-methylpiperidin-1-yl)pyrazin-2-yl)thio)-3-chloropyridin-2-yl)-4-hydroxypiperidin-4-yl)methyl)piperidin-4-yl)oxy)-4-(4-methylthiazol-5-yl)benzyl)-1-((S)-2-(1-fluorocyclopropane-1-carboxamido)-3,3-dimethylbutanoyl)-4-hydroxypyrrolidine-2-carboxamide], which SHP2% degradation (0.01 μM) is on record?
The SHP2% degradation was −8.0%.

What about the SHP2% degradation (0.1 μM) of the same molecule?
The SHP2% degradation was 93.9%.

How did the SHP2% degradation (0.01 μM) turn out when `Cc1ncsc1-c1ccc(CNC(=O)[C@@H]2C[C@@H](O)CN2C(=O)[C@@H](NC(=O)C2(F)CC2)C(C)(C)C)c(O[C@H]2CC[C@H](C(=O)N3CC(Nc4cccc(Sc5cnc(N6CCC7(CC6)Cc6ncccc6[C@H]7N)cn5)c4Cl)C3)CC2)c1` [Example 15, (2S,4R)—N-(2-(((1R,4S)-4-(3-((3-((5-((S)-5-amino-5,7-dihydrospiro[cyclopenta[b]pyridine-6,4′-piperidin]-1′-yl)pyrazin-2-yl)thio)-2-chlorophenyl)amino)azetidine-1-carbonyl)cyclohexyl)oxy)-4-(4-methylthiazol-5-yl)benzyl)-1-((S)-2-(1-fluorocyclopropane-1-carboxamido)-3,3-dimethylbutanoyl)-4-hydroxypyrrolidine-2-carboxamide] was run?
Its SHP2% degradation is 93.5%.

And the SHP2% degradation (0.1 μM)?
Its SHP2% degradation is 99.6%.

With `Cc1ncsc1-c1ccc(CNC(=O)[C@@H]2C[C@@H](O)CN2C(=O)[C@@H](NC(=O)C2(F)CC2)C(C)(C)C)c(O[C@H]2CC[C@H](C(=O)N3CC(Nc4nccc(Sc5cnc(N6CCC7(CC6)CO[C@@H](C)[C@H]7N)cn5)c4Cl)C3)CC2)c1` [Example 22, (2S,4R)—N-(2-(((1R,4S)-4-(3-((4-((5-((3S,4S)-4-amino-3-methyl-2-oxa-8-azaspiro[4.5]decan-8-yl)pyrazin-2-yl)thio)-3-chloropyridin-2-yl)amino)azetidine-1-carbonyl)cyclohexyl)oxy)-4-(4-methylthiazol-5-yl)benzyl)-1-((S)-2-(1-fluorocyclopropane-1-carboxamido)-3,3-dimethylbutanoyl)-4-hydroxypyrrolidine-2-carboxamide] as the molecule, how does the SHP2% degradation (0.01 μM) read?
The SHP2% degradation was 95.7%.

What about the SHP2% degradation (0.1 μM) of the same molecule?
The SHP2% degradation was 97.1%.

Which results are given for `Cc1ncsc1-c1ccc(CNC(=O)[C@@H]2C[C@@H](O)CN2C(=O)[C@@H](NC(=O)C2(F)CC2)C(C)(C)C)c(O[C@H]2CC[C@H](C(=O)N3CCC(Nc4nccc(Sc5cnc(N6CCC7(CC6)CO[C@@H](C)[C@H]7N)cn5)c4Cl)CC3)CC2)c1` [Example 25, (2S,4R)—N-(2-(((1R,4S)-4-(4-((4-((5-((3S,4S)-4-amino-3-methyl-2-oxa-8-azaspiro[4.5]decan-8-yl)pyrazin-2-yl)thio)-3-chloropyridin-2-yl)amino)piperidine-1-carbonyl)cyclohexyl)oxy)-4-(4-methylthiazol-5-yl)benzyl)-1-((S)-2-(1-fluorocyclopropane-1-carboxamido)-3,3-dimethylbutanoyl)-4-hydroxypyrrolidine-2-carboxamide]?
SHP2% degradation (0.01 μM): 94.2%; SHP2% degradation (0.1 μM): 97.0%

With `CC(=O)N[C@H](C(=O)N1C[C@H](O)C[C@H]1C(=O)NCc1ccc(-c2scnc2C)cc1O[C@H]1CC[C@H](C(=O)N2CC(Nc3cccc(Sc4cnc(N5CCC(C)(N)CC5)cn4)c3Cl)C2)CC1)C(C)(C)C` [Example 28, (2S,4R)-1-((S)-2-acetamido-3,3-dimethylbutanoyl)-N-(2-(((1R,4S)-4-(3-((3-((5-(4-amino-4-methylpiperidin-1-yl)pyrazin-2-yl)thio)-2-chlorophenyl)amino)azetidine-1-carbonyl)cyclohexyl)oxy)-4-(4-methylthiazol-5-yl)benzyl)-4-hydroxypyrrolidine-2-carboxamide] as the molecule, how does the SHP2% degradation (0.01 μM) read?
Its SHP2% degradation is 86.9%.

What about the SHP2% degradation (0.1 μM) of the same molecule?
The SHP2% degradation was 98.5%.

`CC(=O)N[C@H](C(=O)N1C[C@H](O)C[C@H]1C(=O)NCc1ccc(-c2scnc2C)cc1O[C@H]1CC[C@H](C(=O)N2CC(Nc3cccc(Sc4cnc(N5CCC6(CC5)Cc5ncccc5[C@H]6N)cn4)c3Cl)C2)CC1)C(C)(C)C` [Example 31, (2S,4R)-1-((S)-2-acetamido-3,3-dimethylbutanoyl)-N-(2-(((1R,4S)-4-(3-((3-((5-((S)-5-amino-5,7-dihydrospiro[cyclopenta[b]pyridine-6,4′-piperidin]-1′-yl)pyrazin-2-yl)thio)-2-chlorophenyl)amino)azetidine-1-carbonyl)cyclohexyl)oxy)-4-(4-methylthiazol-5-yl)benzyl)-4-hydroxypyrrolidine-2-carboxamide] was tested. Which SHP2% degradation (0.01 μM) did it give?
The SHP2% degradation was 76.3%.

What about the SHP2% degradation (0.1 μM) of the same molecule?
Its SHP2% degradation is 99.4%.

Which SHP2% degradation (0.01 μM) does the source give for `CC(=O)N[C@H](C(=O)N1C[C@H](O)C[C@H]1C(=O)NCc1ccc(-c2scnc2C)cc1O[C@H]1CC[C@H](C(=O)N2CC(N3CCc4c(Sc5cnc(N6CCC7(CC6)CO[C@@H](C)[C@H]7N)cn5)cccc43)C2)CC1)C(C)(C)C` [Example 32, (2S,4R)-1-((S)-2-acetamido-3,3-dimethylbutanoyl)-N-(2-(((1R,4S)-4-(3-(4-((5-((3S,4S)-4-amino-3-methyl-2-oxa-8-azaspiro[4.5]decan-8-yl)pyrazin-2-yl)thio)indolin-1-yl)azetidine-1-carbonyl)cyclohexyl)oxy)-4-(4-methylthiazol-5-yl)benzyl)-4-hydroxypyrrolidine-2-carboxamide] here?
The SHP2% degradation was 54.4%.

And the SHP2% degradation (0.1 μM)?
The SHP2% degradation was 98.5%.

Which results are given for `CC(=O)N[C@H](C(=O)N1C[C@H](O)C[C@H]1C(=O)NCc1ccc(-c2scnc2C)cc1O[C@H]1CC[C@H](C(=O)N2CCC(N3CCc4c(Sc5cnc(N6CCC7(CC6)CO[C@@H](C)[C@H]7N)cn5)cccc43)CC2)CC1)C(C)(C)C` [Example 33, (2S,4R)-1-((S)-2-acetamido-3,3-dimethylbutanoyl)-N-(2-(((1R,4S)-4-(4-(4-((5-((3S,4S)-4-amino-3-methyl-2-oxa-8-azaspiro[4.5]decan-8-yl)pyrazin-2-yl)thio)indolin-1-yl)piperidine-1-carbonyl)cyclohexyl)oxy)-4-(4-methylthiazol-5-yl)benzyl)-4-hydroxypyrrolidine-2-carboxamide]?
SHP2% degradation (0.01 μM): 96.6%; SHP2% degradation (0.1 μM): 99.1%
